The structures appear in SMILES notation. Where two headings read alike, the source gives them in different places.

For data set [1], the system named is irinotecan-induced CID in dogs. In words: Dog model of chemotherapy-induced diarrhea. Format: in vivo. The following applies: FIG. 19. An excerpt: The objective of this study was to determine the efficacy of representative macrocyclic compounds of the present invention in chemotherapy-induced diarrhea (CID) following intravenous administration to the male beagle dog (Canis familiaris) for up to 32 days. Comparison with existing agents utilized for this condition, octreotide and loperamide, was an additional objective.
Twenty-one (21) male naïve Beagle dogs were randomly assigned to 7 groups and treated as follows:
The test compounds, controls and comparators were prepared at appropriate intervals. All formulations intended for administration to the test animals were stored refrigerated at 2-8° C. Irinotecan was obtained as a sterile solution for intravenous injection containing irinotecan hydrochloride trihydrate at a concentration of 20 mg/mL, ready to use. The irinotecan formulation for dosing the animals (0.5 mg/mL) in Group 1 (Cycles 1 and 2 only) was achieved by dilution of 20 mg/mL formulation with 5% dextrose for injection, USP. […]
A total of 21 males and 2 spare males were obtained from a commercial supplier (for example Marshall BioResources, North Rose, N.Y.) with ages 5 to 7 months old at onset of treatment and weights 6-9 kg at onset of treatment. […] Temperature and relative humidity were monitored continuously and recorded 4 times daily. […]

Data set [2] is described as follows: Plasma concentrations of compound 552 in beagle dogs during the CID study. The data set is classed as in vivo. Conditions: male, dog, iv; for AUC(0-t): read-out: average AUC0-t (converted). The protocol: The test article No. 2 (compound 552) was intravenously infused via an implanted catheter over 45 minutes to all the animals in Group 4 four days before the start of TA1 (irinotecan) treatment and throughout the 28-day study period. […] The daily dosage (i.e. 5.0, 15.0 and 5.0 mg/kg/day for Groups 2 to 4 respectively) was administered by two equal doses (i.e. 2.5, 7.5 and 2.5 mg/kg/occasion for Groups 2 to 4 respectively) which were separate by at least 6 h. Each dose was infused at a dose volume of 10 mL/kg/h. The vehicle for compound 552 was administered to all dogs in Group 5 by following the same dosing procedures and regimen for compound 552 administration for 23 days (from Day 6 to Day 28). The actual volume infused was calculated and adjusted based on the most recent practical body weight of each animal. The syringes/bags were changed at appropriate intervals as necessary and the weights recorded prior to the start and at the end of the infusion.
Body weights were recorded for all animals once prior to group assignment, and approximately one week prior to initiation of treatment. Body weights were recorded for all animals up to 1 day prior to dosing and twice weekly thereafter during the treatment/observation periods, as well as terminally prior to necropsy (fasted). Food consumption was measured daily during the week prior to treatment and throughout the treatment/observation periods. A series of blood samples (approximately 2.0 mL each) were removed from each dog in Groups 2 and 3 after the first (am) infusion on the first day of treatment with compound 552 and after the second (pm) infusion on the last day of treatment with compound 552. (Note: the second (pm) infusion on the first day of treatment with compound 552 was performed after completion of the last blood sampling). For this purpose, each dog was bled by venipuncture and the samples collected into tubes containing the anticoagulant, K2 EDTA. Tubes were placed on wet ice pending processing. On each occasion, samples were collected prior to the start of infusion, 5, 15, 30, 45, 50, 65, 95, 135 minutes, 3 and 6 hours after the start of infusion of compound 552. Following collection, the samples were centrifuged at approximately 1500×g, approximately 4° C., for at least 10 minutes and the resulting plasma recovered and dispensed into two aliquots and stored frozen (at approximately −80° C.) pending shipment.
Plasma concentrations of compound 552 in male beagle dogs receiving low and high intravenous doses of compound 552 as part of the above experiment were determined. Plasma samples were prepared for analysis by solid phase extraction and analyzed by LC-MS/MS. […] The average AUC0-t was similar on the first (78,233 ng·min/mL) and last day (83,047 ng·min/mL) of dosing for the low dose group (2.5 mg/kg/occasion) and was proportionally higher on the first day (246,073 ng·min/mL) of dosing for the high dose group (7.5 mg/kg/occasion).

On to `CCC[C@@H]1NC(=O)[C@@H](C(C)C)NC(=O)[C@@H](Cc2ccc(O)c(Cl)c2)N[C@@H](C)COc2ccccc2CCCNC1=O` [Compound 552], for which the “efficacy in the treatment of irinotecan-induced CID” value in data set [1] (intravenous infusion, versus the current standard of care (octreotide, loperamide)) is reported as “superior efficacy”. Further, the “onset and duration of action in irinotecan-induced CID” value in data set [1] (versus the current standard of care) is “quicker onset and longer duration of action”. Moreover, the maximum concentration (Cmax) is ~1500 ng/mL in data set [2] (2.5 mg/kg, 2.5 mg/kg 45-min infusion, first day of treatment); ~1800 ng/mL in data set [2] (2.5 mg/kg, 2.5 mg/kg 45-min infusion, last day of treatment); ~3400 ng/mL in data set [2] (7.5 mg/kg, 7.5 mg/kg 45-min infusion, first day of treatment); ~5000 ng/mL in data set [2] (7.5 mg/kg, 7.5 mg/kg 45-min infusion, last day of treatment). The AUC(0-t) was 1300 ng·h/mL in data set [2] (2.5 mg/kg, low dose group 2.5 mg/kg/occasion, first day); 1380 ng·h/mL in data set [2] (2.5 mg/kg, low dose group 2.5 mg/kg/occasion, last day); 4100 ng·h/mL in data set [2] (7.5 mg/kg, high dose group 7.5 mg/kg/occasion, first day); 6350 ng·h/mL in data set [2] (7.5 mg/kg, high dose group 7.5 mg/kg/occasion, last day, one animal with particularly high AUC).

Usually Cmax stands for the maximum level reached in the sampled fluid or tissue.

The values are drawn from US9133235B2, “Macrocyclic antagonists of the motilin receptor for treatment of gastrointestinal dysmotility disorders” (Ocera Therapeutics, Inc., priority 2006, dated 2015).
